This is an account of results in patent US7175872B2, “Pyridinium-Betain compounds for use as taste modulators” (Nestec S.A., priority 2002, dated 2007).

Each structure is given as a SMILES string. Structures can show the parent of a compound that is named as a salt.

One assay deals with salty taste of NaCl. Briefly: Salt taste detection threshold of NaCl/Pyridinium-Betaine mixtures (triangle test, sensory panel). The assay is classed as in vivo. The following applies: mixture with NaCl, pH 7.0. As for the experimental part: (§1) • Sensory panel training: […] Sensory analyses were performed in a sensory panel room at 22-25° C. on three different sessions. • Taste thresholds: The taste thresholds of the tastants or mixtures containing basic tastants plus Pyridinium-Betains were determined in a triangle test using Evian® mineral water as the solvent at a defined pH ([…] and H.-D. Belitz, Z. Lebensm. Unters. Forsch. 1975, 159, 65-72). The samples (3 mL) were presented in order of increasing concentrations (serial 1:1 dilutions). The threshold values evaluated in two different sessions were averaged. […] The taste intensities of aqueous (Evian®) solutions containing a basic tastant, such as glucose and MSG, for example, in constant concentrations and the compounds of the general formula (A), for example […], in various concentrations were compared with those of a solution containing the basic tastant only. […] The relative taste strength (taste enhancing factor) of a mixture containing the basic […] was related to the basic tastants glucose, MSG, or other tastants, respectively, as standard substances, and was determined as the ratio of the concentrations c of iso-intensely tasting solutions of the basic tastant, such as glucose (glc), and the mixture containing tastant plus Pyridinium-Betain, […])=[…] […] This taste enhancing effect is illustrated in examples.

The test system of assay [1] is bitter taste of L-phenylalanine. Briefly: Bitter-blocking effect on L-phenylalanine (detection threshold, 1/1 mixtures). Format: in vivo. The method, then:
as §1, with “only. To achieve this, triangle tests were performed with two glass vials containing the basic tastant in constant concentrations, and one glass vial containing a stepwise 1:1-diluted mixture of basic […].” for “only.”, “examples. The tasteless Pyridinium-Betaines […] and Gabapyridaine, built from non-[…] amino acids, were tested for their bitter-blocking activity on L-phenylalanine.” for “examples.”

Assay [2] has the same test system. Briefly: Bitter intensity ranking with Glypyridaine: L-Phenylalanine. To be noted: scale 0-5. The assay is classed as in vivo. The source says:
(§2) Instead of working with low concentrated solutions at the bitter threshold, another series of experiments use carried out using more concentrated solutions of various bitter compounds to evaluate the bitter-blocking properties of Pyridinium-Betaines based on non-chiral amino acids. […] The bitter-reducing effect was most pronounced with L-Phenylalanine, the dipeptide H-Gly-Leu-OH, and caffeine.

The subject of assay [3] is bitter taste of H-Gly-Leu-OH. Briefly: Bitter intensity ranking with Glypyridaine: H-Gly-Leu-OH. Format: in vivo. To be noted: scale 0-5. The source says: Instead of working with low concentrated solutions at the bitter threshold, another series of experiments use carried out using more concentrated solutions of various bitter compounds to evaluate the bitter-blocking properties of Pyridinium-Betaines based on non-chiral amino acids. […] The bitter-reducing effect was most pronounced with L-Phenylalanine, the dipeptide H-Gly-Leu-OH, and caffeine. For example the 10:1 mixture of L-Phenylalanine and […] was weaker in bitterness (score 3) as compared to pure L-Phenylalanine (score 5).

The subject of the next assay is bitter taste of caffeine. Nature of the assay: Bitter intensity ranking with Glypyridaine: caffeine. The assay is classed as in vivo. To be noted: scale 0-5.
Excerpt: as §2

A further assay concerns bitter taste of salicine. Nature of the assay: Bitter intensity ranking with Glypyridaine: salicine. The following applies: ratio to Glypyridaine 1:1, scale 0-5. Format: in vivo.
Excerpt: as §2

Assay [4] relates to bitter taste of naringine. Briefly: Bitter intensity ranking with Glypyridaine: naringine. The assay is classed as in vivo. The following applies: ratio to Glypyridaine 1:1, scale 0-5.
Excerpt: as §2

For assay [5], the system named is bitter taste of coffee brew. Briefly: Bitterness reduction of coffee with Glypyridaine. The assay is classed as in vivo. The following applies: coffee brew 40 g/L plus 2.0 mmol/L Glypyridaine; coffee alone 5; scale 0 (no bitterness) to 5 (very bitter).
Another assay relates to bitter taste. To be noted: in vivo; cited from earlier work.

As to `O=C([O-])C[n+]1cc(O)ccc1CO` [Glypyridaine, N-carboxymethyl-3-hydroxy-6-hydroxymethyl-pyridinium inner salt], the Salt detection threshold in the assay on salty taste of NaCl was 2.0 mmol/kg water. Also, the Taste quality result with salty taste of NaCl is “salty”; in assay [1] (conc. 32 mmol/L, mixtures 1/1 with L-Phe, pH 7.0) it was “complete loss of the bitter taste”. Moreover, the Threshold decrease with salty taste of NaCl (vs NaCl in water 10.0 mmol/L) is 5.0. Moreover, the own taste result in assay [1] (Pyridinium-Betaine alone) was “tasteless”. The Bitter taste intensity in [2] (L-Phenylalanine 20 mmol/L water, ratio to Glypyridaine 1:1) is 0; in assay [2] (L-Phenylalanine 20 mmol/L water, ratio to Glypyridaine 10:1), 0.5; in assay [2] (L-Phenylalanine 40 mmol/L water, ratio to Glypyridaine 1:1) it was 0; in [2] (L-Phenylalanine 40 mmol/L water, ratio to Glypyridaine 10:1), 2; in assay [2] (L-Phenylalanine 80 mmol/L water, ratio to Glypyridaine 1:1) it was 0.5; in [2] (L-Phenylalanine 80 mmol/L water, ratio to Glypyridaine 10:1), 3. In addition, the Bitter taste intensity in assay [3] (H-Gly-Leu-OH 30 mmol/L water, ratio to Glypyridaine 2:1) is listed as 0.5; in assay [3] (H-Gly-Leu-OH 30 mmol/L water, ratio to Glypyridaine 10:1) it was 2; in assay [3] (H-Gly-Leu-OH 60 mmol/L water, ratio to Glypyridaine 2:1), 1; in assay [3] (H-Gly-Leu-OH 60 mmol/L water, ratio to Glypyridaine 10:1) it was 3; in assay [3] (H-Gly-Leu-OH 120 mmol/L water, ratio to Glypyridaine 10:1), 4; in the assay with bitter taste of caffeine (Caffeine 4 mmol/L water, ratio to Glypyridaine 1:1) it was 0.5. For the same compound, the Bitter taste intensity with bitter taste of caffeine (Caffeine 4 mmol/L water, ratio to Glypyridaine 5:1) came to 1.5; with bitter taste of caffeine (Caffeine 8 mmol/L water, ratio to Glypyridaine 1:1), 1.5; in the assay with bitter taste of caffeine (Caffeine 8 mmol/L water, ratio to Glypyridaine 5:1), 2; in the assay with bitter taste of caffeine (Caffeine 16 mmol/L water, ratio to Glypyridaine 1:1), 2; with bitter taste of caffeine (Caffeine 16 mmol/L water, ratio to Glypyridaine 5:1), 3; in the assay with bitter taste of salicine (Salicine 0.8 mmol/L water), 1. In addition, the Bitter taste intensity worked out at 2 in the assay on bitter taste of salicine (Salicine 1.6 mmol/L water); 3 in the assay with bitter taste of salicine (Salicine 3.2 mmol/L water); 1 in assay [4] (Naringine 0.06 mmol/L water); 2 in assay [4] (Naringine 0.13 mmol/L water); 3 in assay [4] (Naringine 0.25 mmol/L water). In [5], the “bitter taste intensity of coffee” value is 2.
On to `O=C1C=C(c2ccco2)C(CO)[n+]2cc([O-])c(Cc3ccco3)cc21` (stereo not drawn) [3-(2-furyl)-8-[(2-furyl)methyl]-4-hydroxymethyl-1-oxo-1H,4H-quinolizinium-7-olate], for which the “bitter taste detection threshold” value with bitter taste is listed as 0.00025 mmol/kg water.
